Paper PMC12610539, “Determination of Gnetol in Murine Biological Matrices by Liquid Chromatography–Tandem Mass Spectrometry (LC–MS/MS): Application in a Biodistribution Study” (International Journal of Molecular Sciences, 2025)
Where two headings read alike, the source gives them in different places.

Columns and labels:
[1] = Stability of stock solutions (1 mg/mL in DMSO); format: physicochemical
Method: (§1) Stock solutions of gnetol and resveratrol-^13C6 (IS) were prepared in DMSO at 1 mg/mL, stored at −20 °C, and protected from light. Calibration standards and QC samples were generated by serially diluting the gnetol stock into pooled blank murine plasma or hepatic homogenate. Stability was assessed under a range of storage and handling conditions. Stock solutions of gnetol and the IS were evaluated after storage on ice (0–4 °C) and at −20 °C. Plasma stability of gnetol was examined under short-term conditions (on ice for 6 h), long-term storage (−80 °C for 7 days), three freeze–thaw cycles, and post-preparative holding (autosampler at 4 °C for 24 h). Because stability is difficult to determine directly in intact tissues, only short-term stability in liver homogenate (on ice for 6 h) was assessed; for processed tissue extracts, post-preparative stability was likewise evaluated using liver homogenate as a representative matrix. Stability was considered acceptable when 85–115% of the initial gnetol concentration remained.

in vitro = in vitro ADME; settings: mouse
Method: as §1, with “Stability” for “Stock solutions of gnetol and resveratrol-^13C6 (IS) were prepared in DMSO at 1 mg/mL, stored at −20 °C, and protected from light. Calibration standards and QC samples were generated by serially diluting the gnetol stock into pooled blank murine plasma or hepatic homogenate. Stability”

tyrosinase = settings: cited from earlier work
SARS-CoV-2 main protease = test system: SARS-CoV-2 main protease; parameters: method as in PMID 39653224; settings: cited from earlier work

Structure (SMILES): Oc1cc(O)cc(/C=C/c2c(O)cccc2O)c1 [Gnetol, trans-2,3′,5′,6-tetrahydroxystilbene]
- remaining at 24 h, 1 mg/mL [1]: 101 ± 5.3%
- remaining at 168 h, 1 mg/mL [1]: 98.2 ± 3.9%
- remaining at 15 ng/mL (in vitro; plasma): 103 ± 11.6%
- remaining at 1200 ng/mL (in vitro; plasma): 112 ± 2.2%
- remaining at 6 h, 15 ng/mL (in vitro; plasma): 100 ± 7.3%
- remaining at 6 h, 1200 ng/mL (in vitro; plasma): 106 ± 1.8%
- remaining at 24 h, 15 ng/mL (in vitro; plasma): 94 ± 7.7%
- remaining at 24 h, 1200 ng/mL (in vitro; plasma): 103 ± 7.6%
- remaining at 168 h, 15 ng/mL (in vitro; plasma): 97.2 ± 6.3%
- remaining at 168 h, 1200 ng/mL (in vitro; plasma): 112 ± 2.5%
- remaining at 6 h, 15 ng/mL (in vitro; tissue homogenate): 96.1 ± 11.3%
- remaining at 6 h, 1200 ng/mL (in vitro; tissue homogenate): 110 ± 4.4%
- remaining at 24 h, 15 ng/mL (in vitro; tissue homogenate): 104 ± 4.5%
- remaining at 24 h, 1200 ng/mL (in vitro; tissue homogenate): 88.9 ± 6.4%
- Tyrosinase inhibition (tyrosinase): potent tyrosinase inhibitor
- Inhibition of SARS-CoV-2 main protease (SARS-CoV-2 main protease): inhibits the SARS-CoV-2 main protease

Structure (SMILES): Oc1cc(O)cc(/C=C/[13c]2[13cH][13cH][13c](O)[13cH][13cH]2)c1 [Resveratrol-^13C6, trans-3,5,4′-trihydroxystilbene-^13C6, reference compound]
- remaining at 24 h, 1 mg/mL ([1]; stock solution in DMSO, stock solution 1.00 mg/mL, stored at ice-cold temperature for 24 h, n = 6, read-out: Remaining (%, Mean ± SD)): 98.2 ± 3.9%
- remaining at 168 h, 1 mg/mL ([1]; stock solution in DMSO, stock solution 1.00 mg/mL, stored at −20 °C for 7 days, n = 6, read-out: Remaining (%, Mean ± SD)): 100 ± 3.6%
